Measurements as given in ChEMBL document CHEMBL1781915, “Potential virtual lead identification in the discovery of renin inhibitors: application of ligand and structure-based pharmacophore modeling approaches” (Eur J Med Chem, 2011).

target: T1, Renin (Homo sapiens, UniProt P00797)
T1 sequence (P00797 whole entry): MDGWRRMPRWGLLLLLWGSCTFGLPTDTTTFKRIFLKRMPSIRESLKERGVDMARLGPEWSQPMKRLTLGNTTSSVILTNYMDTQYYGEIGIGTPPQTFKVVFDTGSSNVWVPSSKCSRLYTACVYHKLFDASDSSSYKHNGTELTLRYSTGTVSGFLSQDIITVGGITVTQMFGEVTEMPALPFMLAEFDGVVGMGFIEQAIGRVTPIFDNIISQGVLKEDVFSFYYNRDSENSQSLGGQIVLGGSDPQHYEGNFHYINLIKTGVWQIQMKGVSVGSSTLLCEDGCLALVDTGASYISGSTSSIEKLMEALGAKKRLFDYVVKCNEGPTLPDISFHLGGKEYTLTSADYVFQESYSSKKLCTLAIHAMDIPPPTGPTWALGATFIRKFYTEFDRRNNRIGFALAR

SMILES | IC50
CC(C)(C)S(=O)(=O)CC(Cc1ccccc1)C(=O)NC(Cc1cnc[nH]1)C(=O)NC(CC1CCCCC1)C(O)C(O)C1CC1 (stereo unspecified) | 1 nM
CCCCNC(=O)C(CC(=O)C(CC1CCCCC1)NC(=O)C(Cc1cnc[nH]1)NC(=O)C(Cc1ccccc1)CS(=O)(=O)C(C)(C)C)C(C)C (stereo unspecified) | 0.7 nM
COc1ccccc1COCCCOc1ccc(N2C(=O)CNCC2COC2=CC3C(=CC=CN3CCCO)C=C2)cc1 (stereo unspecified) | 37 nM
CCCCNC(=O)C(C)CC(O)C(N)CC(CNC(=O)c1cccc(OCCCOC)c1)C(C)C (stereo unspecified) | 0.9 nM
Cc1cc(Cl)c(OCCOc2ccc(C3=C(C(=O)N(Cc4cccc(C)c4C)C4CC4)C4CNCC(C3)N4)cc2)c(Cl)c1 (stereo unspecified) | 0.16 nM
CCCCNC(=O)C(C)CC(O)C(N)CC(C)(C)CC(=O)N1CC(C(=O)OC)Cc2ccccc21 (stereo unspecified) | 0.8 nM
